Assay results from the NIST ThermoML archive (doi:10.1016/j.jct.2006.09.008).

Test: molar heat capacity at constant pressure; mn = molality of the nth substance listed, in mol/kg
Conditions: 350 kPa, Liquid

O=[N+]([O-])[O-].O=[N+]([O-])[O-].[Mg+2] [magnesium nitrate] + O
molar heat capacity at constant pressure [J/K/mol]
Conditions	m1 = 0.0228	m1 = 0.0567	m1 = 0.1086	m1 = 0.2145	m1 = 0.3197	m1 = 0.4749	m1 = 0.6211	m1 = 0.811	m1 = 1.014
278.15 K	75.58	75.4	75.14	74.65	74.24	73.72	73.31	72.9	72.59
283.15 K	75.43	75.26	75.04	74.61	74.25	73.79	73.43	73.07	72.79
288.15 K	75.33	75.17	74.98	74.6	74.28	73.86	73.54	73.22	72.97
293.15 K	75.26	75.12	74.94	74.6	74.31	73.94	73.65	73.35	73.12
298.15 K	75.22	75.09	74.92	74.62	74.35	74.01	73.74	73.47	73.26
303.15 K	75.19	75.07	74.92	74.64	74.39	74.07	73.83	73.58	73.38
308.15 K	75.18	75.07	74.92	74.66	74.43	74.13	73.91	73.67	73.48
313.15 K	75.18	75.07	74.94	74.69	74.47	74.19	73.98	73.75	73.58
318.15 K	75.2	75.09	74.96	74.72	74.52	74.25	74.04	73.83	73.66
323.15 K	75.22	75.12	74.99	74.76	74.56	74.3	74.11	73.9	73.74
328.15 K	75.25	75.15	75.03	74.81	74.61	74.36	74.17	73.97	73.82
333.15 K	75.29	75.19	75.07	74.85	74.66	74.42	74.23	74.03	73.89
338.15 K	75.34	75.24	75.12	74.91	74.72	74.48	74.3	74.1	73.95
343.15 K	75.39	75.3	75.18	74.96	74.78	74.54	74.36	74.16	74.02
348.15 K	75.46	75.36	75.24	75.02	74.84	74.6	74.42	74.22	74.08
353.15 K	75.53	75.43	75.31	75.09	74.9	74.66	74.48	74.28	74.14
358.15 K	75.61	75.51	75.38	75.16	74.97	74.73	74.55	74.35	74.2
363.15 K	75.69	75.59	75.46	75.24	75.04	74.8	74.61	74.42	74.27
368.15 K	75.78	75.68	75.55	75.32	75.12	74.87	74.68	74.48	74.33
373.15 K	75.88	75.78	75.64	75.4	75.21	74.95	74.76	74.55	74.4
378.15 K	75.99	75.88	75.74	75.5	75.32	75.05	74.83	74.63	74.47
383.15 K	76.11	76	75.85	75.6	75.42	75.14	74.92	74.71	74.55
388.15 K	76.24	76.12	75.97	75.7	75.52	75.24	75.03	74.79	74.63
393.15 K	76.38	76.25	76.09	75.82	75.63	75.34	75.15	74.89	74.73
